Source: US11396504B2, “Alkoxybenzo-five-membered (six-membered) heterocyclic amine compound and pharmaceutical use thereof” (FUDAN UNIVERSITY, priority 2018, dated 2022)

Tests used:
SMS = conditions: reported weak inhibitory activity; cited from earlier work
[1] = target: T1, Sphingomyelin Synthase 2 (SMS2 pure enzyme) (Homo sapiens, UniProt Q8NHU3); assay: In vitro SMS2 pure enzyme inhibition, HPLC fluorogenic quantitative detecting method (C6-NBD-Ceramide to C6-NBD-SM); format: biochemical; conditions: for IC50: SMS2 pure enzyme, five concentrations, three parallel groups, experimental value
T1 construct: Yu, Cao research group of National Protein Science Center (Shanghai)
T1 sequence (Q8NHU3 1-365): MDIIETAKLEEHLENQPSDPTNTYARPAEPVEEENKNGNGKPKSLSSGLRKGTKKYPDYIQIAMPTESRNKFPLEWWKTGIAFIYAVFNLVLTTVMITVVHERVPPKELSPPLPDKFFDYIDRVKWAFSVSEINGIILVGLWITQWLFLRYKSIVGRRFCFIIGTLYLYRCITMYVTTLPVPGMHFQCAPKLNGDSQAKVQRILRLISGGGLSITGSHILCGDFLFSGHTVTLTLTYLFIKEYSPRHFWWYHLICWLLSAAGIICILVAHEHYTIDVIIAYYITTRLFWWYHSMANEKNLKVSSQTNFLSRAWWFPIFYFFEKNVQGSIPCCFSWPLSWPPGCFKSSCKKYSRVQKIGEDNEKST
Experimental: Add […] SMS2 pure enzyme DDM solution (total protein content 1.5 μg/μL), 1 μL test compound in DMSO solution or blank DMSO solution, 79.7 μL DDM buffer to 1.5 mL Eppendorf tube, vortex 30 seconds, let stand at room temperature for 5 min. Then add 20 μL DDM buffer containing 1 μL DMPC in ethanol (40 mmol/L) and 1 μL C6-NBD-Ceramide in DMSO (1.16 mmol/L). After vortexing for 30 seconds, Incubate for 0.5 h under water bath at 37° C. Then remove, add 200 μL of absolute ethanol, and vortex for 30 seconds. Take out 200 μL of the mixture and store it at 4° C. for high performance liquid chromatography analysis.
(§1) Using the same HPLC fluorogenic quantitative detecting method as reference (Xiaodong Deng; Hong Sun; et al. Analytical Letters, 2012, 45:12, 1581-1589) to analyses samples obtained above. Analysize and record peak areas of C6-NBD-SM (Asm) and C6-NBD-Ceramide (Acer) of each sample from blank group, positive control group (compound D2) and under tested compound group. Calculate inhibition rate from the formula below: […]
The DMSO stock solution of under tested compound (6 mM) was diluted stepwise into five concentration gradient. 1 μL solution of each concentration was added into the trial system to prepare samples with the method mentioned in the first step of application case 15. The Asm values of the five concentration solution of tested compound were measured (compound D2 is a positive control), and the inhibition rate under the five concentration were calculated and fitted to obtain median inhibitory concentration (IC50). Each compound was measured three parallel groups. SMS2 median inhibitory concentration and SMS1 single inhibitory concentration (50 μM) of Scheme I-1˜I-38, and SMS1 median inhibitory concentration of some compounds are listed below in Table 1.

[2] = target: T2, Sphingomyelin Synthase 1 (SMS1 pure enzyme) (Homo sapiens, UniProt Q86VZ5); assay: In vitro SMS1 pure enzyme inhibition, HPLC fluorogenic quantitative detecting method; format: biochemical; conditions: for inhibition at 50 µM: single concentration 50 μM
T2 construct: Yu, Cao research group of National Protein Science Center (Shanghai)
T2 sequence (Q86VZ5 1-413): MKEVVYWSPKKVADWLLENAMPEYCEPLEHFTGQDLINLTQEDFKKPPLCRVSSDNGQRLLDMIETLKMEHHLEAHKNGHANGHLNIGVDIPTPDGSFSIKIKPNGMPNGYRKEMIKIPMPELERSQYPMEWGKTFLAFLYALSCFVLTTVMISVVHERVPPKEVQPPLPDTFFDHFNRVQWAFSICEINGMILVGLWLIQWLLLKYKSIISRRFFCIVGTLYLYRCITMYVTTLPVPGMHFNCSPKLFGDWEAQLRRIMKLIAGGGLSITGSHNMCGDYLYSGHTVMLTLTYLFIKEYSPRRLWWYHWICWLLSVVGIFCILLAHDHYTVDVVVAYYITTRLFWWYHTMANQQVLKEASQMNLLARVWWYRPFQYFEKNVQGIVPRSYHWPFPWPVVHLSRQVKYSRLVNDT
Source text: Referring to the above SMS2 inhibitory activity detection method, and using SMS1 pure enzyme instead of SMS2 pure enzyme for corresponding operation.
as §1
Part 4. Determination of SMS1 Median Inhibitory Concentration (IC50) and SMS1 Single Concentration (50 μM) Inhibitory Concentration of Alkoxybenzeno Five- or Six-Member Heterocyclic Amines (Scheme I-1˜I-38)
The experiment can be carried out with the corresponding concentration according to the operation similar to the determination of the median inhibitory concentration (IC50) of SMS2.

| Structure (SMILES) | IC50 (SMS) [µM] | IC50 [1] [µM] | inhibition at 50 µM [2] [%] | Selectivity ratio ([1]; SMS1 IC50 relative to SMS2 IC50) | IC50 [2] [µM] |
| --- | --- | --- | --- | --- | --- |
| S=C(S)OC1CC2CC1C1CCCC21 (stereo not shown) [Scheme D609] | 375 | – | – | – | – |
| Fc1cccc(F)c1COc1cccc2onc(Nc3cccnc3)c12 [Scheme I-27, 4-((2,6-Difluorobenzyl)oxy)-N-(pyridin-3-yl)benzo[d]isoxazol-3-amine] | – | 0.72 | 30 | – | – |
| FC(F)(F)Oc1ccc(Cl)cc1COc1cccc2onc(Nc3cccnc3)c12 [Scheme I-3, 4-((5-chloro-2-(trifluoromethoxy)benzyl)oxy)-N-(pyridin-3-yl)benzo[d]isoxazol-3-amine] | – | 2 | 49 | – | – |
| c1ccc(COc2cccc3snc(Nc4cccnc4)c23)cc1 [Scheme I-31, 4-(benzyloxy)-N-(pyridin-3-yl)benzo[d]isothiazol-3-amine] | – | 1.46 | 13 | – | – |
| c1ccc(-c2cc(COc3cccc4onc(Nc5cccnc5)c34)ccn2)cc1 [Scheme I-39, 4-((2-phenylpyridin-4-yl)methoxy)-N-(pyridin-3-yl)benzo[d]isoxazol-3-amine] | – | 13 | -6 | – | – |
| O=C(CN1CCCC1)Nc1noc2cccc(OCc3cc(F)ccc3Cl)c12 [Scheme I-36, N-(4-((2-chloro-5-fluorobenzyl)oxy)benzo[d]isoxazol-3-yl)-2-(pyrrolidin-1-y) acetamide] | – | > 10 | 9 | – | – |
| N#Cc1ccccc1COc1cccc2onc(Nc3cccnc3)c12 [Scheme I-22, 4-((2-Cyanobenzyl)oxy)-N-(pyridin-3-yl)benzo[d]isoxazol-3-amine] | – | 4.14 | 4 | – | – |
| COc1cccc(COc2cccc3onc(Nc4cccnc4)c23)c1 [Scheme I-17, 4-((3-Methoxybenzyl)oxy)-N-(pyridin-3-yl)benzo[d]isoxazol-3-amine] | – | 0.523 | 17 | – | – |
| FC(F)(F)c1cccc(COc2cccc3onc(Nc4cccnc4)c23)c1 [Scheme I-14, 4-((3-Trifluoromethylbenzyl)oxy)-N-(pyridin-3-yl)benzo[d]isoxazole-3-amine] | – | 0.486 | 25 | – | – |
| FC(F)(F)Oc1cccc(COc2cccc3onc(Nc4cccnc4)c23)c1 [Scheme I-20, 4-((3-Trifluoromethoxybenzyl)oxy)-N-(pyridin-3-yl)benzo[d]-isoxazol-3-amine] | – | 1.27 | 30 | – | – |
| FC(F)(F)c1ccccc1COc1cccc2onc(Nc3cccnc3)c12 [Scheme I-13, 4-((2-Trifluoromethylbenzyl)oxy)-N-(pyridin-3-yl)benzo[d]isoxazole-3-amine] | – | 0.255 | 21 | – | – |
| Fc1ccc(Cl)c(COc2cccc3onc(Nc4cccnc4)c23)c1 [Scheme I-2, 4-((2-Chloro-5-fluorobenzyl)oxy)-N-(pyridin-3-yl)benzo[d]-isoxazol-3-amine] | – | 0.102 | 44 | 539 | 55 |
